This assay has as its target T1, CviR (LuxR homologue) (Chromobacterium violaceum, UniProt D3W065).
T1 construct: CviR ORF in pET28a, SUMO + His-tag fusion, E. coli BL21 (DE3), Ni-Sepharose, eluted by ULP proteinase digestion; RED-NHS labelled
Briefly: microscale thermophoresis (RED-NHS labelled CviR). The class given is binding. (Microscale thermophoresis detects binding through changes in fluorescence in a small temperature gradient.)

[1] abbreviates: 50 mM Tris-HCl, 150 mM NaCl, 10 mM MgCl2, 0.05% Tween-20, labelled protein, stated 20 μM CviR.

Read-outs that look alike come from different tables or passages of the source.

T1 sequence (D3W065 1-265): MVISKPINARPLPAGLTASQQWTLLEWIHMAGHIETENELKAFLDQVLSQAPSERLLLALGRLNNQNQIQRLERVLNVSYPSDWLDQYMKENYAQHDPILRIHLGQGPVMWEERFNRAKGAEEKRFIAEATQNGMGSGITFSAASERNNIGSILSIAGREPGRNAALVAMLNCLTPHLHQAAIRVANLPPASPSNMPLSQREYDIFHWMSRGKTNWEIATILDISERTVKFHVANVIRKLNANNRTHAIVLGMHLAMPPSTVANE

As a reminder, the Kd is the equilibrium constant for the complex coming apart. Low values mean a tighter complex, high ones a looser complex. Regarding `O=C(/C=C/c1ccc(O)c(O)c1)c1ccc(O)cc1O` [BN1, Butein], under setting [1], the Kd entry is given as “MST results suggested that all the QSIs except C7X have significant binding ability”. In the case of `CC(C)=CCc1cc2c(cc1O)O[C@H](c1ccc(O)cc1)CC2=O` [BN2, Bavachin], the Kd was found to be 0.0451 ± 0.0019 µM. `Oc1ccc2c(c1)OC[C@](O)(Cc1ccc(O)c(O)c1)[C@H]2O` [SPL, Sappanol]: the Kd result under setting [1] is “MST results suggested that all the QSIs except C7X have significant binding ability”.

Source of the values: publication PMC6132053, “Virtual Screening and Biomolecular Interactions of CviR-Based Quorum Sensing Inhibitors Against Chromobacterium violaceum” (Frontiers in Cellular and Infection Microbiology, 2018).
